*1 amine or outer side, *2 acyl side, *3 side chain or, on linkers, in order; H or OH if unused. Where a SMILES comes first, the peptide text is derived from it. [ ]: non-standard residue; d: D form. Ala(piperidin-4-yl) = O=C([C@H](CC1CCN([*:3])CC1)N[*:1])[*:2]; Trp(βS-Me,4-F) = C[C@@H](c1c[nH]c2cccc(F)c12)[C@H](N)C(=O)O; Bip(4'-COOH) = N[C@@H](Cc1ccc(-c2ccc(C(=O)O)cc2)cc1)C(=O)O; Phe(4-COOH) = N[C@@H](Cc1ccc(C(=O)O)cc1)C(=O)O; h3Pal(5-CN) = N#Cc1cncc(CC[C@H](N)C(=O)O)c1; Pro(4R-NH2) = N[C@H]1CN[C@H](C(=O)O)C1; X7 = O=C([C@H](CCN1CCOCC1)N[*:1])[*:2]; 1Nal = N[C@@H](Cc1cccc2ccccc12)C(=O)O; AEF = NCCOc1ccc(C[C@H](N)C(=O)O)cc1; hTyr = N[C@@H](CCc1ccc(O)cc1)C(=O)O; hPhe = N[C@@H](CCc1ccccc1)C(=O)O; 4Pal = N[C@@H](Cc1ccncc1)C(=O)O; dDab = NCC[C@@H](N)C(=O)O; dNMeA = CN[C@H](C)C(=O)O; Dab = NCC[C@H](N)C(=O)O; Nva = CCC[C@H](N)C(=O)O
The compounds below were run against T1, Recombinant human IL-1β (Homo sapiens, UniProt P01584) (assay: IL-6 assay in MRC5 cells: inhibition of IL-1β induced IL-6 secretion (AlphaLISA)). Conditions: not given.
T1 construct: purchased BioLegend 579404
T1 sequence (P01584 117-269): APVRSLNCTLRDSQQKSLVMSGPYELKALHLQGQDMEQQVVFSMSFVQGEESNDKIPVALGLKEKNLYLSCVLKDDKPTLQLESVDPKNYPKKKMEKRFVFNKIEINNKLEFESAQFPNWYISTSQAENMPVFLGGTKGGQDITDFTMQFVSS
Format: cell-based
Method in brief: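 IL-1β at 2×EC80 in seeding medium (EMEM, 0.025% BSA) preincubated 1 h at ambient temperature with compound, then 3000 MRC5 cells/well added and incubated overnight at 37 °C, 5% CO2. IL-6 in conditioned medium quantified by AlphaLISA; IC50 from 4-parameter logistic fit.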

Row | Structure (SMILES) | IC50
1 | CC(=O)NCCOc1ccc(C[C@@H]2NC(=O)[C@H](Cc3ccc(OCCN)cc3)NC(=O)[C@@H](C)NC(=O)[C@H](CC(C)C)NC(=O)[C@H](Cc3c[nH]c4ccccc34)NC(=O)[C@H](Cc3ccc(-c4ccc(C(=O)O)cc4)cc3)NC(=O)CNC(=O)[C@@H](C)N(C)C(=O)[C@H](CC(=O)O)NC(=O)[C@H]([C@@H](C)c3c[nH]c4cccc(F)c34)NC(=O)[C@@H]3C[C@@H](N)CN3C(=O)CNC(=O)[C@H](Cc3ccc(C(=O)O)cc3)NC(=O)[C@H](Cc3c[nH]c4ccccc34)NC2=O)cc1 [Example 164] (cyclo([AEF][AEF](Ac)W[Phe(4-COOH)]G[Pro(4R-NH2)][Trp(βS-Me,4-F)]D[dNMeA]G[Bip(4'-COOH)]WL[dA])) | 0.459 nM

Same assay, conditions: inhibition of IL-1β induced IL-6 secretion in MRC5 cells; read-out: MRC5 IC50

Row | Structure (SMILES) | IC50
2 | CC(=O)NCCOc1ccc(C[C@@H]2NC(=O)[C@H](CCc3ccc(O)cc3)NC(=O)[C@@H](C)NC(=O)[C@H](CO)NC(=O)[C@H](Cc3cccc4ccccc34)NC(=O)[C@H](Cc3ccc(-c4ccc(C(=O)O)cc4)cc3)NC(=O)CNC(=O)[C@@H](C)N(C)C(=O)[C@H](CC(=O)O)NC(=O)[C@H]([C@@H](C)c3c[nH]c4cccc(F)c34)NC(=O)[C@@H]3C[C@@H](N)CN3C(=O)CNC(=O)[C@H](Cc3ccc(C(=O)O)cc3)NC(=O)[C@H](Cc3c[nH]c4ccccc34)NC2=O)cc1 [Example 155] (cyclo([AEF](Ac)W[Phe(4-COOH)]G[Pro(4R-NH2)][Trp(βS-Me,4-F)]D[dNMeA]G[Bip(4'-COOH)][1Nal]S[dA][hTyr])) | 0.22 nM
3 | CC(=O)NCCOc1ccc(C[C@@H]2NC(=O)[C@H](CCc3ccc(O)cc3)NC(=O)[C@@H](C)NC(=O)[C@H](CC(C)C)NC(=O)[C@H](Cc3ccncc3)NC(=O)[C@H](Cc3ccc(-c4ccc(C(=O)O)cc4)cc3)NC(=O)CNC(=O)[C@@H](C)N(C)C(=O)[C@H](CC(=O)O)NC(=O)[C@H]([C@@H](C)c3c[nH]c4cccc(F)c34)NC(=O)[C@@H]3C[C@@H](N)CN3C(=O)CNC(=O)[C@H](Cc3ccc(C(=O)O)cc3)NC(=O)[C@H](Cc3c[nH]c4ccccc34)NC2=O)cc1 [Example 156] (cyclo([AEF](Ac)W[Phe(4-COOH)]G[Pro(4R-NH2)][Trp(βS-Me,4-F)]D[dNMeA]G[Bip(4'-COOH)][4Pal]L[dA][hTyr])) | 0.948 nM
4 | CCC[C@@H]1NC(=O)[C@H](Cc2ccncc2)NC(=O)[C@H](Cc2ccc(-c3ccc(C(=O)O)cc3)cc2)NC(=O)CNC(=O)[C@@H](C)N(C)C(=O)[C@H](CC(=O)O)NC(=O)[C@H]([C@@H](C)c2c[nH]c3cccc(F)c23)NC(=O)[C@@H]2C[C@@H](N)CN2C(=O)CNC(=O)[C@H](Cc2ccc(C(=O)O)cc2)NC(=O)[C@H](Cc2c[nH]c3ccccc23)NC(=O)[C@H](Cc2ccc(OCCNC(C)=O)cc2)NC(=O)[C@H](CCc2ccc(O)cc2)NC(=O)[C@@H](C)NC1=O [Example 157] (cyclo([AEF](Ac)W[Phe(4-COOH)]G[Pro(4R-NH2)][Trp(βS-Me,4-F)]D[dNMeA]G[Bip(4'-COOH)][4Pal][Nva][dA][hTyr])) | 0.403 nM
5 | CC(=O)NCCOc1ccc(C[C@@H]2NC(=O)[C@H](CCc3cncc(C#N)c3)NC(=O)[C@@H](C)NC(=O)[C@H](CC(C)C)NC(=O)[C@H](CCCCN)NC(=O)[C@H](Cc3ccc(-c4ccc(C(=O)O)cc4)cc3)NC(=O)CNC(=O)[C@@H](C)N(C)C(=O)[C@H](CC(=O)O)NC(=O)[C@H]([C@@H](C)c3c[nH]c4cccc(F)c34)NC(=O)[C@@H]3C[C@@H](N)CN3C(=O)CNC(=O)[C@H](Cc3ccc(C(=O)O)cc3)NC(=O)[C@H](Cc3c[nH]c4ccccc34)NC2=O)cc1 [Example 158] (cyclo([AEF](Ac)W[Phe(4-COOH)]G[Pro(4R-NH2)][Trp(βS-Me,4-F)]D[dNMeA]G[Bip(4'-COOH)]KL[dA][h3Pal(5-CN)])) | 0.0257 nM
6 | CC(=O)NCCOc1ccc(C[C@@H]2NC(=O)[C@H](CCc3ccc(O)cc3)NC(=O)[C@@H](C)NC(=O)[C@H](CC(C)C)NC(=O)[C@H](CCCCN)NC(=O)[C@H](Cc3ccc(-c4ccc(C(=O)O)cc4)cc3)NC(=O)CNC(=O)[C@@H](C)N(C)C(=O)[C@H](CC(=O)O)NC(=O)[C@H]([C@@H](C)c3c[nH]c4cccc(F)c34)NC(=O)[C@@H]3C[C@@H](N)CN3C(=O)CNC(=O)[C@H](Cc3ccc(C(=O)O)cc3)NC(=O)[C@H](Cc3c[nH]c4ccccc34)NC2=O)cc1 [Example 159] (cyclo([AEF](Ac)W[Phe(4-COOH)]G[Pro(4R-NH2)][Trp(βS-Me,4-F)]D[dNMeA]G[Bip(4'-COOH)]KL[dA][hTyr])) | 0.118 nM
7 | CC(=O)NCCOc1ccc(C[C@@H]2NC(=O)[C@H](CCc3ccc(O)cc3)NC(=O)[C@@H](CCN)NC(=O)[C@H](CC(C)C)NC(=O)[C@H](CCCCN)NC(=O)[C@H](Cc3ccc(-c4ccc(C(=O)O)cc4)cc3)NC(=O)CNC(=O)[C@@H](C)N(C)C(=O)[C@H](CC(=O)O)NC(=O)[C@H]([C@@H](C)c3c[nH]c4cccc(F)c34)NC(=O)[C@@H]3C[C@@H](N)CN3C(=O)CNC(=O)[C@H](Cc3ccc(C(=O)O)cc3)NC(=O)[C@H](Cc3c[nH]c4ccccc34)NC2=O)cc1 [Example 160] (cyclo([AEF](Ac)W[Phe(4-COOH)]G[Pro(4R-NH2)][Trp(βS-Me,4-F)]D[dNMeA]G[Bip(4'-COOH)]KL[dDab][hTyr])) | 0.522 nM
8 | CC(=O)NCCOc1ccc(C[C@@H]2NC(=O)[C@H](CCc3ccc(O)cc3)NC(=O)[C@@H](CO)NC(=O)[C@H](CC(C)C)NC(=O)[C@H](CCCCN)NC(=O)[C@H](Cc3ccc(-c4ccc(C(=O)O)cc4)cc3)NC(=O)CNC(=O)[C@@H](C)N(C)C(=O)[C@H](CC(=O)O)NC(=O)[C@H]([C@@H](C)c3c[nH]c4cccc(F)c34)NC(=O)[C@@H]3C[C@@H](N)CN3C(=O)CNC(=O)[C@H](Cc3ccc(C(=O)O)cc3)NC(=O)[C@H](Cc3c[nH]c4ccccc34)NC2=O)cc1 [Example 161] (cyclo([AEF](Ac)W[Phe(4-COOH)]G[Pro(4R-NH2)][Trp(βS-Me,4-F)]D[dNMeA]G[Bip(4'-COOH)]KL[dS][hTyr])) | 0.483 nM
9 | CC(=O)NCCOc1ccc(C[C@@H]2NC(=O)CNC(=O)[C@@H](C)NC(=O)[C@H](CCN3CCOCC3)NC(=O)[C@H](Cc3c[nH]c4ccccc34)NC(=O)[C@H](Cc3ccc(-c4ccc(C(=O)O)cc4)cc3)NC(=O)CNC(=O)[C@@H](C)N(C)C(=O)[C@H](CC(=O)O)NC(=O)[C@H]([C@@H](C)c3c[nH]c4cccc(F)c34)NC(=O)[C@@H]3C[C@@H](N)CN3C(=O)CNC(=O)[C@H](Cc3ccc(C(=O)O)cc3)NC(=O)[C@H](Cc3c[nH]c4ccccc34)NC2=O)cc1 [Example 162] (cyclo([AEF](Ac)W[Phe(4-COOH)]G[Pro(4R-NH2)][Trp(βS-Me,4-F)]D[dNMeA]G[Bip(4'-COOH)]W[X7][dA]G)) | 0.749 nM
10 | CC(=O)NCCOc1ccc(C[C@@H]2NC(=O)[C@H](CCc3ccccc3)NC(=O)[C@@H](C)NC(=O)[C@H](CCN)NC(=O)[C@H](Cc3c[nH]c4ccccc34)NC(=O)[C@H](Cc3ccc(-c4ccc(C(=O)O)cc4)cc3)NC(=O)CNC(=O)[C@@H](C)N(C)C(=O)[C@H](CC(=O)O)NC(=O)[C@H]([C@@H](C)c3c[nH]c4cccc(F)c34)NC(=O)[C@@H]3C[C@@H](N)CN3C(=O)CNC(=O)[C@H](Cc3ccc(C(=O)O)cc3)NC(=O)[C@H](Cc3c[nH]c4ccccc34)NC2=O)cc1 [Example 163] (cyclo([AEF](Ac)W[Phe(4-COOH)]G[Pro(4R-NH2)][Trp(βS-Me,4-F)]D[dNMeA]G[Bip(4'-COOH)]W[Dab][dA][hPhe])) | 0.156 nM
11 | CC(=O)NCCOc1ccc(C[C@@H]2NC(=O)[C@H](CC3CCNCC3)NC(=O)[C@@H](C)NC(=O)[C@H](CC(C)C)NC(=O)[C@H](Cc3c[nH]c4ccccc34)NC(=O)[C@H](Cc3ccc(-c4ccc(C(=O)O)cc4)cc3)NC(=O)CNC(=O)[C@@H](C)N(C)C(=O)[C@H](CC(=O)O)NC(=O)[C@H]([C@@H](C)c3c[nH]c4cccc(F)c34)NC(=O)[C@@H]3C[C@@H](N)CN3C(=O)CNC(=O)[C@H](Cc3ccc(C(=O)O)cc3)NC(=O)[C@H](Cc3c[nH]c4ccccc34)NC2=O)cc1 [Example 165] (cyclo([AEF](Ac)W[Phe(4-COOH)]G[Pro(4R-NH2)][Trp(βS-Me,4-F)]D[dNMeA]G[Bip(4'-COOH)]WL[dA][Ala(piperidin-4-yl)])) | 0.781 nM
12 | CC(=O)NCCOc1ccc(C[C@@H]2NC(=O)[C@H](CCc3ccccc3)NC(=O)[C@@H](C)NC(=O)[C@H](CC(C)C)NC(=O)[C@H](Cc3c[nH]c4ccccc34)NC(=O)[C@H](Cc3ccc(-c4ccc(C(=O)O)cc4)cc3)NC(=O)CNC(=O)[C@@H](C)N(C)C(=O)[C@H](CC(=O)O)NC(=O)[C@H]([C@@H](C)c3c[nH]c4cccc(F)c34)NC(=O)[C@@H]3C[C@@H](N)CN3C(=O)CNC(=O)[C@H](Cc3ccc(C(=O)O)cc3)NC(=O)[C@H](Cc3c[nH]c4ccccc34)NC2=O)cc1 [Example 166] (cyclo([AEF](Ac)W[Phe(4-COOH)]G[Pro(4R-NH2)][Trp(βS-Me,4-F)]D[dNMeA]G[Bip(4'-COOH)]WL[dA][hPhe])) | 0.149 nM
13 | CC(=O)NCCOc1ccc(C[C@@H]2NC(=O)[C@H](CCc3ccc(O)cc3)NC(=O)[C@@H](C)NC(=O)[C@H](CC(C)C)NC(=O)[C@H](Cc3c[nH]c4ccccc34)NC(=O)[C@H](Cc3ccc(-c4ccc(C(=O)O)cc4)cc3)NC(=O)CNC(=O)[C@@H](C)N(C)C(=O)[C@H](CC(=O)O)NC(=O)[C@H]([C@@H](C)c3c[nH]c4cccc(F)c34)NC(=O)[C@@H]3C[C@@H](N)CN3C(=O)CNC(=O)[C@H](Cc3ccc(C(=O)O)cc3)NC(=O)[C@H](Cc3c[nH]c4ccccc34)NC2=O)cc1 [Example 167] (cyclo([AEF](Ac)W[Phe(4-COOH)]G[Pro(4R-NH2)][Trp(βS-Me,4-F)]D[dNMeA]G[Bip(4'-COOH)]WL[dA][hTyr])) | 0.136 nM
14 | CC(=O)NCCOc1ccc(C[C@@H]2NC(=O)[C@H](CCc3ccc(O)cc3)NC(=O)[C@@H](CCN)NC(=O)[C@H](CC(C)C)NC(=O)[C@H](Cc3c[nH]c4ccccc34)NC(=O)[C@H](Cc3ccc(-c4ccc(C(=O)O)cc4)cc3)NC(=O)CNC(=O)[C@@H](C)N(C)C(=O)[C@H](CC(=O)O)NC(=O)[C@H]([C@@H](C)c3c[nH]c4cccc(F)c34)NC(=O)[C@@H]3C[C@@H](N)CN3C(=O)CNC(=O)[C@H](Cc3ccc(C(=O)O)cc3)NC(=O)[C@H](Cc3c[nH]c4ccccc34)NC2=O)cc1 [Example 168] (cyclo([AEF](Ac)W[Phe(4-COOH)]G[Pro(4R-NH2)][Trp(βS-Me,4-F)]D[dNMeA]G[Bip(4'-COOH)]WL[dDab][hTyr])) | 0.0847 nM

— patent publication US20230406885A1, “CYCLIC PEPTIDES FOR TRAPPING INTERLEUKIN-1 BETA” (MERCK SHARP & DOHME LLC, priority 2022, published 2023)
